Measurements as given in PMC9866191, “Novel 9-Benzylaminoacridine Derivatives as Dual Inhibitors of Phosphodiesterase 5 and Topoisomerase II for the Treatment of Colon Cancer” (Molecules, 2023).

How the values were obtained:
Test in all cases: NCI-60 one-dose screen
Format in all cases: cell-based
A498 = details: Homo sapiens; A498, Renal Cancer panel; single dose 10^−5 M; read-out: Growth inhibition %
A549/ATCC = details: Homo sapiens, Non-small cell lung panel, single dose 10^−5 M, read-out: Growth inhibition %
HCC-2998 = details: Homo sapiens; HCC-2998, Colon Cancer panel; single dose 10^−5 M; read-out: Growth inhibition %
HCT-116 = details: Homo sapiens, read-out: Growth inhibition %
HOP-62 = details: Homo sapiens; HOP-62, Non-small cell lung panel; single dose 10^−5 M; read-out: Growth inhibition %
HOP-92 = details: Homo sapiens; HOP-92, Non-small cell lung panel; single dose 10^−5 M; read-out: Growth inhibition %
M14 = details: Homo sapiens; M14, Melanoma panel; single dose 10^−5 M; read-out: Growth inhibition %
MALME-3M = details: Homo sapiens, Melanoma panel, single dose 10^−5 M, read-out: Growth inhibition %
MCF7 = details: Homo sapiens; MCF7, Breast Cancer panel; single dose 10^−5 M; read-out: Growth inhibition %
MDA-MB-468 = details: Homo sapiens; MDA-MB-468, Breast Cancer panel; single dose 10^−5 M; read-out: Growth inhibition %
NCI-H23 = details: Homo sapiens; NCI-H23, Non-small cell lung panel; single dose 10^−5 M; read-out: Growth inhibition %
NCI-H322M = details: Homo sapiens, Non-small cell lung panel, single dose 10^−5 M, read-out: Growth inhibition %
NCI-H460 = details: Homo sapiens; NCI-H460, Non-small cell lung panel; single dose 10^−5 M; read-out: Growth inhibition %
NCI-H522 = details: Homo sapiens; NCI-H522, Non-small cell lung panel; single dose 10^−5 M; read-out: Growth inhibition %
NCI/ADR-RES = details: Homo sapiens, Ovarian Cancer panel, single dose 10^−5 M, read-out: Growth inhibition %
OVCAR-4 = details: Homo sapiens; OVCAR-4, Ovarian Cancer panel; single dose 10^−5 M; read-out: Growth inhibition %
OVCAR-5 = details: Homo sapiens; OVCAR-5, Ovarian Cancer panel; single dose 10^−5 M; read-out: Growth inhibition %
PC-3 = details: Homo sapiens; PC-3, Prostate Cancer panel; single dose 10^−5 M; read-out: Growth inhibition %
RPMI-8226 = details: Homo sapiens; RPMI-8226, Leukemia panel; single dose 10^−5 M; read-out: Growth inhibition %
RXF 393 = details: Homo sapiens; RXF 393, Renal Cancer panel; single dose 10^−5 M; read-out: Growth inhibition %
SF-295 = details: Homo sapiens; SF-295, CNS Cancer panel; single dose 10^−5 M; read-out: Growth inhibition %
SF-539 = details: Homo sapiens; SF-539, CNS Cancer panel; single dose 10^−5 M; read-out: Growth inhibition %
SK-MEL-2 = details: Homo sapiens; SK-MEL-2, Melanoma panel; single dose 10^−5 M; read-out: Growth inhibition %
SK-OV-3 = details: Homo sapiens; SK-OV-3, Ovarian Cancer panel; single dose 10^−5 M; read-out: Growth inhibition %
SN12C = details: Homo sapiens, Renal Cancer panel, single dose 10^−5 M, read-out: Growth inhibition %
SNB-19 = details: Homo sapiens; SNB-19, CNS Cancer panel; single dose 10^−5 M; read-out: Growth inhibition %
T-47D = details: Homo sapiens, T47D, Breast Cancer panel, single dose 10^−5 M, read-out: Growth inhibition %
TK-10 = details: Homo sapiens; TK-10, Renal Cancer panel; single dose 10^−5 M; read-out: Growth inhibition %
U251 = details: Homo sapiens, U-251; U251, CNS Cancer panel; single dose 10^−5 M; read-out: Growth inhibition %
UACC-257 = details: Homo sapiens; UACC-257, Melanoma panel; single dose 10^−5 M; read-out: Growth inhibition %
UACC-62 = details: Homo sapiens; UACC-62, Melanoma panel; single dose 10^−5 M; read-out: Growth inhibition %
LOX IMVI = details: Homo sapiens, Melanoma panel, single dose 10^−5 M, read-out: Growth inhibition %

Compound	inhibition at 10 µM (A498)	inhibition at 10 µM (A549/ATCC)	inhibition at 10 µM (HCC-2998)	inhibition at 10 µM (HCT-116)	inhibition at 10 µM (HOP-62)	inhibition at 10 µM (HOP-92)	inhibition at 10 µM (M14)	inhibition at 10 µM (MALME-3M)	inhibition at 10 µM (MCF7)	inhibition at 10 µM (MDA-MB-468)	inhibition at 10 µM (NCI-H23)	inhibition at 10 µM (NCI-H322M)	inhibition at 10 µM (NCI-H460)	inhibition at 10 µM (NCI-H522)	inhibition at 10 µM (NCI/ADR-RES)	inhibition at 10 µM (OVCAR-4)	inhibition at 10 µM (OVCAR-5)	inhibition at 10 µM (PC-3)	inhibition at 10 µM (RPMI-8226)	inhibition at 10 µM (RXF 393)	also measured
COc1ccc(CNc2c3ccccc3nc3ccccc23)cc1OC [Compound 18, Acridin-9-yl-(3,4-dimethoxybenzyl)-amine]	112%	83.7%	69.9%	87.8%	65.5%	110%	82.3%	92.1%	99.3%	123%	84.9%	70.2%	93.8%	81.8%	80.7%	78.6%	72.5%	78%	99.4%	96.4%	inhibition at 10 µM (SF-295): 81.9%; inhibition at 10 µM (SF-539): 84.7%; inhibition at 10 µM (SK-MEL-2): 61.4%; inhibition at 10 µM (SK-OV-3): 58.9%; inhibition at 10 µM (SN12C): 77.5%; inhibition at 10 µM (SNB-19): 78.2%; inhibition at 10 µM (T-47D): 74.2%; inhibition at 10 µM (TK-10): 67.7%; inhibition at 10 µM (U251): 76.8%; inhibition at 10 µM (UACC-257): 77.9%; inhibition at 10 µM (UACC-62): 73.2%; inhibition at 10 µM (LOX IMVI): 104%
Fc1cccc(CNc2c3ccccc3nc3ccccc23)c1F [Compound 20, Acridin-9-yl-(2,3-difluorobenzyl)-amine]	101%	43.3%	41.6%	82.5%	27.3%	97.3%	29.4%	5.87%	70.2%	78%	39.4%	36.6%	52%	46.1%	51.5%	50.1%	26.8%	42.9%	47.1%	40.5%	inhibition at 10 µM (SF-295): 46.2%; inhibition at 10 µM (SF-539): 44.5%; inhibition at 10 µM (SK-MEL-2): -6.76%; inhibition at 10 µM (SK-OV-3): 24.1%; inhibition at 10 µM (SN12C): 51%; inhibition at 10 µM (SNB-19): 41.5%; inhibition at 10 µM (T-47D): 31.7%; inhibition at 10 µM (TK-10): 10.8%; inhibition at 10 µM (U251): 34.5%; inhibition at 10 µM (UACC-257): 7.14%; inhibition at 10 µM (UACC-62): 24.3%; inhibition at 10 µM (LOX IMVI): 60.8%
Fc1ccc(CNc2c3ccccc3nc3ccccc23)c(F)c1 [Compound 21, Acridin-9-yl-(2,4-difluorobenzyl)-amine]	104%	59.9%	58.7%	85.8%	42.8%	103%	44.7%	30.5%	89.8%	104%	57.2%	50.8%	80%	57.7%	63.8%	108%	48.3%	31.1%	71.7%	65.5%	inhibition at 10 µM (SF-295): 59.6%; inhibition at 10 µM (SF-539): 67.6%; inhibition at 10 µM (SK-MEL-2): 0.35%; inhibition at 10 µM (SK-OV-3): 40.2%; inhibition at 10 µM (SN12C): 62.8%; inhibition at 10 µM (SNB-19): 58.5%; inhibition at 10 µM (T-47D): 52.6%; inhibition at 10 µM (TK-10): 39%; inhibition at 10 µM (U251): 55.9%; inhibition at 10 µM (UACC-257): 31.1%; inhibition at 10 µM (UACC-62): 40.9%; inhibition at 10 µM (LOX IMVI): 78.5%
Fc1ccc(CNc2c3ccccc3nc3ccccc23)cc1F [Compound 22, Acridin-9-yl-(3,4-difluorobenzyl)-amine]	90.2%	70.9%	97.8%	91.8%	48.7%	109%	56.9%	49.3%	87.1%	111%	64.8%	61%	85.4%	63%	72.4%	64.6%	55.4%	64.3%	73.1%	92.6%	inhibition at 10 µM (SF-295): 70.2%; inhibition at 10 µM (SF-539): 77.9%; inhibition at 10 µM (SK-MEL-2): 10.6%; inhibition at 10 µM (SK-OV-3): 44.3%; inhibition at 10 µM (SN12C): 70.3%; inhibition at 10 µM (SNB-19): 67.1%; inhibition at 10 µM (T-47D): 52.1%; inhibition at 10 µM (TK-10): 48.9%; inhibition at 10 µM (U251): 69.7%; inhibition at 10 µM (UACC-257): 34.9%; inhibition at 10 µM (UACC-62): 40%; inhibition at 10 µM (LOX IMVI): 87.5%
